# Source: patent US10590166B2, “Peptides useable for treating cancer” (Allegro Pharmaceuticals, LLC, priority 2009, dated 2020)
# “Also recorded” adds a separate entry of the source. Square brackets hold non-standard residues; d marks the D form. Peptide text beside a SMILES is read from it. Cya = N[CH](CS(=O)(=O)O)C(=O)O
# How the values were obtained:
# [1] = system: human umbilical vein endothelial cells (HUVEC); assay: wound-healing assay with HUVEC on fibronectin coated surface; format: cell-based
# Experimental: To test the anti-adhesive properties of RGCysteic Acid peptides in vitro, a wound-healing assay was performed with human umbilical vein endothelial cells (HUVEC). HUVEC were seeded and allowed to grow to a confluent monolayer on a fibronectin coated surface. A wound (a scratch rift) was created by dragging a small pipette tip across the HUVEC monolayer. The cells were then incubated in fresh growth medium containing the RGCysteic Acid peptide (Compound 1; 10 mM), and the wound area was imaged in five different fields at various time points (0, 4, 8, 12, 16, 20, 24 hours) to determine the kinetics of wound closure. The level of wound closure was quantified by determining the fraction of the original wound area that was re-occupied by HUVEC through cellular adhesion, migration and proliferation.
# In control studies, the following peptides were used in place of RGCysteic Acid (Compound 1): cyclic-RGD peptide (1 mM), positive control) and RGE peptide (1 mM, negative control).
# The results are shown as a percentage of the original area. The error bars correspond to the standard deviation in wound size across 2-6 independent trials.
# rho/VEGF mice = assay: Subretinal neovascularization in transgenic rho/VEGF mice expressing human VEGF; format: in vivo; conditions: 25 μg, single intraocular injection, seven days post-dose, 3 animals
# Experimental: Transgenic mice in which the rhodopsin promoter drives expression of human VEGF in photoreceptors (rho/VEGF mice) were randomized into separate treatment groups and studies were performed to provide the following comparisons:
# Pretreatment measurements of the area of subretinal neovascularization were made on each animal using image analysis by a masked observer. Each animal received its designated treatment in a single intraocular injection. Seven days post-dose, measurements of the area of subretinal neovascularization were again made and compared to the pre-dose measurements to determine the change in subretinal neovascularization area. Also, the animals were sacrificed and the retinas were dissected, immunostained with GSA lectin and examined by fluorescence microscopy.
# New Zealand Rabbits [2] = assay: Ocular toxicity of intravitreal Compound 1 with and without urea (Table A); format: in vivo; conditions: 24 hour follow up
# New Zealand Rabbits [3] = assay: Ocular toxicity of subconjunctival Compound 1 (Table C); format: in vivo; conditions: single subconjunctival 5.0 mg/100 μL, 48 hour follow up
# Rabbits = format: in vivo
# Experimental: In this example, the PVD-Inducing Effects of RGD Peptides and Glycyl-Arginyl-Glycyl-Cysteic-Threonyl-Proline-COOH (RG Cysteic Acid Peptide; GRG Cysteic Acid TP; Compound 1) (SEQ ID NO: 2) were compared in rabbits. The protocol for this study was as follows:
# Animal Model • a) 20 Male and Female Rabbits • b) Weighing approximately 1.5-2.5 kg. • c) Divide into 2 groups
# i) 10 Rabbits were injected intravitreally with 2.5% RGD solution at pH=6.5 • a) 10 Right Eye injected with 2.5% RGD solution • b) 5 Left Eye used as BSS Control • c) 5 Left Eyes injected with 2.5% RGD+0.02% EDTA at pH=6.5
# ii) 10 Rabbits were injected intravitreally with 2.5% RGCysteic solution at pH=6.5 • a) 10 Right Eye injected with 2.5% RGCysteic solution at pH=6.5 • b) 10 Left Eye injected with 2.5% RGCysteic solution+0.02% EDTA at pH=6.5
# Active Chemicals • d) Sodium EDTA—99.0-100.5% from Spectrum Chemical Corp. • e) RG Cysteic Acid—cGMP supplier (Purity>98%). • f) RGD—cGMP supplier (Purity>98%). • g) BSS solution
# Both the RG Cysteic Acid, RGD, RG Cysteic Acid+Sodium EDTA, RGD+Sodium EDTA, and the BSS solutions were injected into the vitreous cavity 24 hours prior to surgery. The rabbits ([…]) were anesthetized with an intramuscular injection of 2.0 ml of 1:1 combination of xylazine (100 mg/ml) and Ketamine hydrochloride (100 mg/ml). Pupils are dilated with topical cyclopentolate hydrochloride 1% and Phenylephrine hydrochloride 10%.
# All animals were initially examined with slit lamp biomicroscopy and indirect ophthalmoscopy to exclude any animals with pre-existing vitreoretinal abnormalities. The intravitreal injection of 0.10 cc was administered 2 mm posterior to the limbus in the supranasal quadrant using a 30-gauge needle attached to a 1.0 cc syringe. Care must be taken to avoid damage to the lens or retina.
# Twenty four hours following injection and immediately before initiation of a mechanical vitrectomy, a B-scan ultrasonography was performed to determine the status of the posterior vitreous and also the liquefaction of the vitreous. A two-port pars plana vitrectomy was performed using an infusion fiberoptic and a vitreous cutter attached to a vitrectomy unit. Following a 30 second core vitrectomy, the vitreous cutter was directed to the peripapillary retinal surface where, using low aspiration (<30 mmHg) a separation of the posterior cortical vitreous from the retinal surface was attempted in 4 quadrants. The sclerotomies were sutured and a postoperative B-Scan ultrasonography was carried out to determine the presence and extent of any PVD present in each quadrant. The animals were euthanized with intracardiac sodium pentobarbital injections, and the eyes were immediately enucleated.
# ; • Grade 0. a) No detachment of the posterior Vitreous is observed. • b) Vitreous Liquefaction • Grade 1. a) Consists of eyes in which the vitreous is detached in 2 or less quadrants. • b) Vitreous Liquefaction • Grade 2. a) Consists of eyes in which the vitreous is detached in 3 or more quadrants, but with remaining focal attachments along the medullary rays • b) Vitreous Liquefaction • Grade 3. a) Consists of eyes in which the vitreous is totally detached from the retinal surface • b) Vitreous Liquefaction
# Care was taken to avoid damage to the adjacent retina and lens. The eyes were immersed in 2% paraformaldehyde plus 2.5% glutaraldehyde for a minimum of 24 hours at 4 degrees Celsius. A unique posterior calotte was removed, dehydrated in methanol, and dried in carbon dioxide to the critical point, sputter-coated in gold and photographed using the scanning electron microscope.
# [4] = single intravitreal 2.5 mg/100 μL
# [5] = single intravitreal injection, 8 eyes per group
# [6] = Table B, single intravitreal 2.5 mg/100 μL, 24 hour follow up
# [7] = Table B, single intravitreal 2.5 mg/100 μL, 24 hour follow up, share of eyes
compound,measurement,setting,value
"CC(O)C(NC(=O)C(CS(=O)(=O)O)NC(=O)CNC(=O)C(CCCNC(=N)N)NC(=O)CN)C(=O)N1CCCC1C(=O)O (stereo not shown) [Compound 1, Glycinyl-Arginyl-Glycinyl-Cysteic-Threonyl-Proline-COOH] (H-GRG[Cya]TP-OH; configuration not given here)",inhibition of cell adhesion,"[1]; HUVEC wound healing model, in 12 hours",74%
same,inhibition of HUVEC wound healing,"[1]; after 24 hours, Compound 1 10 mM, control peptides 1 mM",70%
same,apoptosis of the HUVEC cells,[1]; wound healing assay,without apoptosis
same,greater reduction in subretinal neovascularization area than control animals (Phosphate Buffered Saline),rho/VEGF mice,37.06%
same,Ocular toxicity: RPE toxicity,New Zealand Rabbits [2]; [4],No RPE toxicity
same,Ocular toxicity: cataract formation,New Zealand Rabbits [2]; [4],No cataract
same,Ocular toxicity: exudates,New Zealand Rabbits [2]; [4],No exudates
same,Ocular toxicity: inflammation,New Zealand Rabbits [2]; [4],No inflammation
same,Ocular toxicity: retinal hemorrhage,New Zealand Rabbits [2]; [4],No retinal
same,"Ocular toxicity: retinal tears, breaks or detachments",New Zealand Rabbits [2]; [4],"No retinal tears,"
same,Ocular toxicity: retinal vascular compromise,New Zealand Rabbits [2]; [4],No retinal
same,Total PVD,New Zealand Rabbits [2]; [5],75% Total PVD
same,Vitreous liquefaction,New Zealand Rabbits [2]; [5],Complete
same,Ocular toxicity: RPE toxicity,New Zealand Rabbits [3],No RPE toxicity
same,Ocular toxicity: cataract formation,New Zealand Rabbits [3],No cataract
same,Ocular toxicity: exudates,New Zealand Rabbits [3],No exudates
same,Ocular toxicity: inflammation,New Zealand Rabbits [3],No inflammation
same,Ocular toxicity: retinal hemorrhage,New Zealand Rabbits [3],No retinal
same,"Ocular toxicity: retinal tears, breaks or detachments",New Zealand Rabbits [3],"No retinal tears,"
same,Ocular toxicity: retinal vascular compromise,New Zealand Rabbits [3],No retinal vascular
same,Total PVD,New Zealand Rabbits [3]; 3 eyes,0% Total PVD
same,Vitreous liquefaction,New Zealand Rabbits [3]; 3 eyes,No liquefaction
same,PVD grade (postoperative B-scan),"Rabbits; 2.5% intravitreal 0.10 cc, OD treated eye, 24 hours after injection, one value per animal, listed as RG Cysteic Acid","Grade 3 -; also recorded: Grade 2 - (Consists of eyes in which the vitreous is detached in 3 or more quadrants, but with remaining focal attachments along the medullary rays); also recorded: Grade 1 - (Consists of eyes in which the vitreous is detached in 2 or less quadrants.)"
same,liquefaction of the vitreous,"Rabbits; 2.5% intravitreally, 24 hours",completely liquefied
same,separation of the vitreous from the retina,"Rabbits; 2.5% intravitreally, in 24 hours",complete separation of the vitreous from the retina
same,Ocular toxicity: RPE toxicity,Rabbits; [6],No RPE toxicity
same,Ocular toxicity: cataract formation,Rabbits; [6],No cataract formation
same,Ocular toxicity: exudates,Rabbits; [6],No exudates
same,Ocular toxicity: inflammation,Rabbits; [6],No inflammation
same,Ocular toxicity: retinal hemorrhage,Rabbits; [6],No retinal hemorrhage
same,"Ocular toxicity: retinal tears, breaks or detachments",Rabbits; [6],"No retinal tears, breaks"
same,Ocular toxicity: retinal vascular compromise,Rabbits; [6],No retinal vascular
same,Complete Liquefaction,Rabbits; [7],PVD - 80% Complete
same,Total PVD,Rabbits; [7],Group 1: - 60% Total
same,"activity in inducing complete PVD and liquefying the vitreous, compared with RGD","Rabbits; rabbits, 2.5% intravitreal",equal or slightly better than that of RGD
same,activity when administered with 0.02% Sodium Edetate,"Rabbits; rabbits, 2.5% intravitreal",not altered
same,adverse effects from the intravitreal injection,"Rabbits; rabbits, 2.5% intravitreal",no adverse effects or adverse safety effects
